# Key:
# [1] = target: androgen receptor (AR) (Homo sapiens, UniProt P10275, T878A); conditions: LNCaP
# Protocol: LNCaP, an androgen sensitive prostate cancer cell line, was maintained in RPMI with 10% FBS. For androgen stimulation experiments, cells were placed for two days in phenol red-free RPMI, supplemented with 5% of charcoal-treated FCS before being treated with 1% ethanol or 10 nM R1881 for the following time points 0, 3, 12, 24, and 48 hours. Cells were treated for 16 hours with androgen and crosslinked for chromatin immunoprecipitation (ChIP) analysis.
# The input whole-cell extract DNA and the ChIP-enriched DNA were amplified by ligation-mediated PCR, and subjected to qPCR assessment of target promoters. ChIP enrichment was evaluated as a percentage of input DNA.
# [2] = system: ERG; assay: Androgen regulation of Erg expression in LNCap and VCaP cells; type: cell-based, human; conditions: VCaP (TMPRSS2-ERG+), varying amounts of R1881, 48 hrs
# Protocol: This Example describes the androgen regulation of Erg expression. LNCap (TMPRSS2-ERG-) and VCaP (TMPRSS2-ERG+) cell lines were used. The cells were contacted with varying amounts of R1881 for 48 hrs. Expression of Erg, PSA (+control) and beta-tubulin (−control) were assayed.
# [3] = system: ERG; assay: In vitro androgen responsiveness: ERG expression by QPCR after R1881; type: cell-based, human; conditions: 1 nM R1881, 24 h; for increase in expression of ERG compared to untreated controls: QPCR ERG/GAPDH; for expression of ERG after R1881 treatment compared to untreated controls: QPCR
# Protocol: Quantitative PCR (QPCR) was performed using SYBR Green dye on an Applied Biosystems 7300 Real Time PCR system essentially as described (Chinnaiyan et al., Cancer Res 65, 3328 (2005); Rubin et al., Cancer Res 64, 3814 (2004)). Briefly, 1-5 μg of total RNA was reverse transcribed into cDNA using SuperScript III (Invitrogen) in the presence of random primers or random primers and oligo dT primers. All reactions were performed with SYBR Green Master Mix (Applied Biosystems) and 25 ng of both the forward and reverse primer using the manufacturer's recommended thermocycling conditions. All reactions were subjected to melt curve analysis and products from selected experiments were resolved by electrophoreses on 1.5% agarose gels. For each experiment, threshold levels were set during the exponential phase of the QPCR reaction using Sequence Detection Software version 1.2.2 (Applied Biosystems). The amount of each target gene relative to the housekeeping gene glyceraldehyde-3-phosphate dehydrogenase (GAPDH) for each sample was determined using the comparative threshold cycle (Ct) method (Applied Biosystems User Bulletin #2), with the cDNA sample serving as the calibrator for each experiment described in the figure legend. All oligonucleotide primers were synthesized by Integrated DNA Technologies. GAPDH primers were as described (Vandesompele et al., Genome Biol 3, RESEARCH0034 (2002)) and all other primers are listed (Table 4).
# RWPE, LNCaP, VCap DuCaP, PC3 and PC3 cells stably transfected with the human androgen receptor (PC3+AR) (3) were treated for 24 h with 1% ethanol control or 1 nM of the synthetic androgen R1881. Total RNA was isolated and subjected to reverse transcription and QPCR as described above with ERG exon 5-6_f and _r primers. The relative amount of ERG/GAPDH for each sample was calibrated to the RWPE control sample.
# [4] = system: VCaP and LNCaP prostate cancer cell lines; assay: QPCR of PSA and ETV1 in VCaP and LNCaP cells treated with R1881; type: cell-based, human
# [5] = system: LNCaP prostate cancer cell line; assay: Androgen stimulation time course of LNCaP cells, Q-PCR of FLJ35294, CANT1 and DDX5 transcripts; type: cell-based, human
# Protocol: Q-PCR was carried out according to standard protocols.
# Samples were normalized by the mRNA level of the housekeeping gene GAPDH. Androgen stimulation reactions were performed in triplicate, and all other reactions were performed in duplicate. RNA Ligase Mediated Rapid Amplification of cDNA Ends (RLM-RACE)
# [6] = system: LNCaP prostate cancer cell line; assay: Androgen stimulation of LNCaP cells, qPCR of endogenous 5′ fusion partner genes; type: cell-based, human; conditions: 1 nM R1881, 24 h
# Protocol: For androgen stimulation experiments, LNCaP cells were grown in charcoal-stripped serum containing media for 24 hours before treatment for 24 hours with 1% ethanol or 1 nM of methyltrienolone (R1881, NEN Life Science Products, Boston, Mass.) dissolved in ethanol.
# Quantitative PCR (QPCR) was performed using Power SYBR Green Mastermix (Applied Biosystems, Foster City, Calif.) on an Applied Biosystems 7300 Real Time PCR system as described (Tomlins et al., Cancer Res 66, 3396-400 (2006); Tomlins et al., Recurrent fusion of TMPRSS2 and ETS transcription factor genes in prostate cancer. Science 310, 644-8 (2005)). HMBS and GAPDH5, and PSA6 primers were as described. Androgen stimulation reactions were performed in quadruplicate, all other reactions were performed in duplicate.
# androgen receptor (AR), sequence (P10275 whole entry T878A): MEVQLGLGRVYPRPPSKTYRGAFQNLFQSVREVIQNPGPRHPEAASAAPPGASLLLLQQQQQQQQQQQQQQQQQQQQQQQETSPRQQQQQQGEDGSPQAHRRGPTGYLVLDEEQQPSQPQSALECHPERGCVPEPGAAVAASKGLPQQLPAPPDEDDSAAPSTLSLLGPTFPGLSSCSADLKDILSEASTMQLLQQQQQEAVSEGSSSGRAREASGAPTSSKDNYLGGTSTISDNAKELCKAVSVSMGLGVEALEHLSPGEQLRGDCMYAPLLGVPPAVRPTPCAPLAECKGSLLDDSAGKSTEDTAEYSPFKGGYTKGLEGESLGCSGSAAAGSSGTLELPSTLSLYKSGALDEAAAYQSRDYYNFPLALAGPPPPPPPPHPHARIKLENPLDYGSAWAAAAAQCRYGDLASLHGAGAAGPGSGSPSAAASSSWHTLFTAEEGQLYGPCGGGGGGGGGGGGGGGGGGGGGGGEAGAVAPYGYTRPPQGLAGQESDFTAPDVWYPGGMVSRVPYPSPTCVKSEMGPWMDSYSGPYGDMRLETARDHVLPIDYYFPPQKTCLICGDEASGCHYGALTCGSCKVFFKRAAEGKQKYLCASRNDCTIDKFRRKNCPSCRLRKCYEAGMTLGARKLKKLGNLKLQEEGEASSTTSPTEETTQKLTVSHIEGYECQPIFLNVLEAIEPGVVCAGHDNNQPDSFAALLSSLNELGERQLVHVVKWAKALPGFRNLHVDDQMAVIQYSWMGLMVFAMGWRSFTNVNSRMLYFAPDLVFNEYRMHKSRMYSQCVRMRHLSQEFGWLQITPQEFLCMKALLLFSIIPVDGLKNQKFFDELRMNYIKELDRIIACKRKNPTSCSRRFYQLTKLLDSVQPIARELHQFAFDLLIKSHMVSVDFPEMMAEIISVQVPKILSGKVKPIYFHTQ
compound,measurement,setting,value
"C[C@]1(O)CC[C@H]2[C@@H]3CCC4=CC(=O)CCC4=C3C=C[C@@]21C [R1881, methyltrienolone]",AR recruitment to the promoter region of DDX5 (ChIP),[1]; 16 hours after R1881,not recruited
same,AR occupancy of the promoter region of CANT1 (ChIP enrichment),"[1]; 16 hours after R1881, P=0.0014",40 fold
same,AR occupancy of the promoter region of FL35294 (ChIP enrichment),"[1]; 16 hours after R1881, P=0.005",9 fold
same,"ERG expression, androgen dependence",[2],androgen dependent
same,increase in expression of ERG compared to untreated controls,[3]; DuCaP cells,2.57 fold
same,expression of ERG after R1881 treatment compared to untreated controls,[3]; LnCaP cells,0.86 fold
same,expression of ERG after R1881 treatment compared to untreated controls,[3]; PC3 cells expressing the androgen receptor,0.73 fold
same,expression of ERG after R1881 treatment compared to untreated controls,[3]; PC3 cells,1.28 fold
same,expression of ERG after R1881 treatment compared to untreated controls,[3]; RWPE cells,1.37 fold
same,increase in expression of ERG compared to untreated controls,[3]; VCaP cells,5.02 fold
same,ETV1 expression by QPCR,"[4]; LNCaP cells, 1 nM R1881, 48 hours",induction
same,ETV1 expression,[4]; androgen-responsive VCaP cell line,does not induce
same,PSA expression by QPCR (normalized to GAPDH),"[4]; both VCaP and LNCaP cells, 1 nM R1881, 48 hours",induction
same,expression of DDX5 on R1881 stimulation,"[5]; 10 nM R1881, Q-PCR",not affected
same,induction of expression of endogenous CANT1,"[5]; 10 nM R1881, at 24 hours, Q-PCR, P=0.0014",3.8 fold
same,induction of expression of endogenous FL35294,"[5]; 10 nM R1881, at 48 hours, Q-PCR, P=0.0006",11.6 fold
same,decrease in expression of C15ORF21,[6]; P=0.0012,1.9 fold
same,change in expression of HNRPA2B1 (not significantly changed),[6]; P=0.29,1.17 fold
same,increase in endogenous expression of HERV-K_22q11.23,[6]; P=2.4E-4,7.8 fold
same,increase in endogenous expression of SLC45A3,[6]; P=6.5E-4,21.6 fold
same,increase in endogenous expression of TMPRSS2,[6]; P=9.95E-7,14.8 fold

# — US9957569B2, “Recurrent gene fusions in prostate cancer” (THE REGENTS OF THE UNIVERSITY OF MICHIGAN, priority 2005, dated 2018)
